Results as given in patent EP1641451B1, “METHOD FOR PHOTODYNAMIC INACTIVATION OF PATHOGENS USING ALA” (MACO PHARMA, priority 2003, dated 2005).

Columns and labels:
Format in all cases: cell-based
plaquettes [1] = experiment: Platelet functionality: visual inspection of swirling (tournoiement) of the CPA; conditions: ALA 4 mM; CPA 10 g/L proteins; after 1 h30 illumination at 365 nm
From the text: (§1) Dans cet exemple, deux tests ont été effectués afin d'évaluer la fonctionnalité des plaquettes en présence de différentes concentrations d'ALA après illumination à l'aide des lampes UVA (365 nm).
Le premier test est la visualisation du tournoiement ou « swirling », c'est-à-dire l'inspection visuelle du CPA à travers une source lumineuse (phénomène lié à la présence de formes discoïdes dans la suspension plaquettaire).
(§2) Ces deux tests ont été réalisés sur un CPA ajusté à 10 g/L de protéines en présence de concentration croissante d'ALA après 1 h30 d'illumination à 365 nm.
(§3) Le même test a été réalisé sans illumination (1 h30 d'agitation douce à l'obscurité)
(§4) Un test d'agrégation et une inspection visuelle du tournoiement ont été réalisées sur un CPA ajusté à 10 g/L de protéines en présence de PpX sel disodique dans du NaOH 1 N 0,1 % (après 30 minutes d'illumination à 365 nm). Le nombre de plaquettes par poche de 8 ml est de 7,6.10^9.

Klebsiella pneumoniae = experiment: Bacterio-attenuation test in contaminated CPA, photodynamic treatment at 365 nm
Procedure: (§5) Les bactéries sont injectées dans les échantillons à une concentration finale de 1 bactérie pour 50 000 plaquettes. Les bactéries sont mises en culture dans un bouillon Thyoglycolate-Resazurine (ref: 42074, Biomérieux Marcy l'Etoile, France) (0,5 mL de suspension bactérienne en bouillon ou une colonie sur gélose dans 9 mL de bouillon). Elles sont incubées 24 h à 37°C pour qu'elles soient en phase de croissance lors de leur utilisation. Avant leur utilisation, le bouillon de culture est centrifugé à 2500 g pendant 10 min. à 21°C, le culot est repris dans du NaCl 0,9 % et celui-ci est lavé 3 fois à 2500 g pendant 10 min. à 21 °C.
(§6) Le titre bactérien de la suspension lavée et diluée est évalué par une lecture de densité optique à 630 nm. Une dilution de la suspension bactérienne est ensuite réalisée pour obtenir une concentration finale de 1 bactérie pour 50 000 plaquettes.
(§7) Pour réaliser les tests de bactério-atténuation, les CPA dilués sont aliquotés dans la solution SSP (MacoPharma, Tourcoing, France) pour obtenir une concentration finale en protéines de 10 g/L dans des poches en PVC. Puis 1 mL de suspension bactérienne est injecté. Le volume final contenu dans les poches est de 8 mL. Le tout est homogénéisé pour un meilleur contact entre les plaquettes et les bactéries.
(§8) L'illumination se fait à l'aide d'une lampe UVA comportant deux tubes (réf. VL-215BL, Vilber Lourmat, France) génératrice de rayons UV 365 nm et de lumière visible d'une intensité de 108 µW/cm^2 à une distance de 1 m de l'échantillon. La lampe est disposée à une distance de 13 cm des poches à traitées. L'illumination se fait à 4°C. La lampe délivre une dose de 23 J/cm^2 en 1 h.
(§9) Après illumination, une numération bactérienne est réalisée pour mesurer la diminution du tire bactérien dans les poches traitées. Pour cela, 1 mL de la dilution la plus appropriée est étalée sur des géloses nutritives Trypcase-soja (ref : 43011, boîtes de 90 mm de diamètre, Biomérieux, Marcy l'Etoile, France). Les géloses sont ensuite incubées 24 h à 37 °C pour pouvoir effectuer un comptage. Les résultats sont exprimés en ufc/mL.
Des tests de bactério-atténuation ont été effectués sur Klebsiella pneumoniae. Les tests sont réalisés sur des CPA ajustés à 10 g/L de protéines. Le nombre de plaquettes par poche de 8 mL est de 10,5.10^9.
Les poches sont incubées 1h à température ambiante puis illuminées par irradiation à 365 nm (Fig. 4 et 5).

plaquettes [2] = experiment: Platelet functionality: collagen aggregation test (thrombo-aggregometer, turbidimetry); conditions: for % d'aggrégation: CPA 10 g/L proteins
Procedure: as §1
Le second test est un test d'agrégation au collagène. Ce test est réalisé à l'aide d'un thrombo-agrégomètre (SEFAM, Regulest, Fleurange, France). L'activation plaquettaire par un agoniste (collagène) est estimée in vitro par turbidimétrie, en enregistrant en continu à 37°C et sous agitation, la transmission d'un faisceau de lumière à travers la suspension plaquettaire. Le regroupement des plaquettes en amas de plus en plus volumineux s'accompagne d'un éclaircissement progressif du milieu. Les résultats sont rendus en pourcentage d'agrégation en fonction du temps, le 100% d'agrégation correspondant au plasma pauvre en plaquettes et le 0% d'agrégation correspondant à l'échantillon avant l'ajout de l'agoniste. L'enregistrement de la transmission lumineuse est déclenché au moment de l'ajout d'un faible volume de l'agoniste à l'échantillon. Ainsi, nous pouvons visualiser le temps de latence, le changement de forme des plaquettes puis l'agrégation qui peut être stable ou réversible.
as §2, §3, §4

Escherichia coli = experiment: Bacterio-attenuation test in contaminated CPA, photodynamic treatment at 365 nm
Procedure: as §5, §6, §7, §8, §9
Des tests de bactério-atténuation ont été effectués sur E. coli. Les tests sont réalisés sur des CPA ajustés à 10 g/L de protéines. Le nombre de plaquettes par poche de 8 ml est de 4,7 10^9.
Les poches sont incubées 1 h à 37°C avant d'être irradiées à 365 nm (Fig. 6).
Sans incubation, les résultats sont les suivants (Fig. 7) : […]

Q: What does the source list for `NCC(=O)CCC(=O)O` [ALA, acide 5-aminolévulinique]?
A: Swirling (plaquettes [1]): Faible+; titre bactérien Klebsiella (Klebsiella pneumoniae; ALA 1 mM, Incub. 1 h at room temperature): 187 10^-2 ufc/ml; titre bactérien Klebsiella (Klebsiella pneumoniae; ALA 1 mM, Incub. 1 h then Irr. 1h30 at 365 nm): 5 10^-2 ufc/ml; titre bactérien Klebsiella (Klebsiella pneumoniae; ALA 1 mM, Incub. 1 h then Irr. 1 h at 365 nm): 14 10^-2 ufc/ml; titre bactérien Klebsiella (Klebsiella pneumoniae; ALA 1 mM, T0, CPA 10 g/L proteins): 201 10^-2 ufc/ml; titre bactérien Klebsiella (Klebsiella pneumoniae; ALA 2 mM, Incub 1 h at room temperature): 163 10^-2 ufc/ml; titre bactérien Klebsiella (Klebsiella pneumoniae; ALA 2 mM, Incub 1 h then Irr 1 h30 at 365 nm): 1 10^-2 ufc/ml; titre bactérien Klebsiella (Klebsiella pneumoniae; ALA 2 mM, Incub 1 h then Irr. 1 h at 365 nm): 9 10^-2 ufc/ml; titre bactérien Klebsiella (Klebsiella pneumoniae; ALA 2 mM, T0, CPA 10 g/L proteins): 159 10^-2 ufc/ml; titre bactérien Klebsiella (Klebsiella pneumoniae; ALA 3 mM, Incub 1 h at room temperature): 168 10^-2 ufc/ml; titre bactérien Klebsiella (Klebsiella pneumoniae; ALA 3 mM, Incub 1 h then Irr 1 h30 at 365 nm): 1 10^-2 ufc/ml; titre bactérien Klebsiella (Klebsiella pneumoniae; ALA 3 mM, Incub 1 h then Irr. 1 h at 365 nm): 8 10^-2 ufc/ml; titre bactérien Klebsiella (Klebsiella pneumoniae; ALA 3 mM, T0, CPA 10 g/L proteins): 179 10^-2 ufc/ml; titre bactérien Klebsiella (Klebsiella pneumoniae; ALA 4 mM, Incub 1h at room temperature): 192 10^-2 ufc/ml; titre bactérien Klebsiella (Klebsiella pneumoniae; ALA 4 mM, Incub 1h then Irr 1h30 at 365 nm): 1 10^-2 ufc/ml; titre bactérien Klebsiella (Klebsiella pneumoniae; ALA 4 mM, Incub 1h then Irr. 1h at 365 nm): 6 10^-2 ufc/ml; titre bactérien Klebsiella (Klebsiella pneumoniae; ALA 4 mM, T0, CPA 10 g/L proteins): 183 10^-2 ufc/ml; titre bactérien Klebsiella (Klebsiella pneumoniae; ALA 5 mM, Incub. 1h at room temperature): 175 10^-2 ufc/ml; titre bactérien Klebsiella (Klebsiella pneumoniae; ALA 5 mM, Incub. 1h then 'Irr 1h 1h30' at 365 nm): 0 10^-2 ufc/ml; titre bactérien Klebsiella (Klebsiella pneumoniae; ALA 5 mM, Incub. 1h then 'Irr.' at 365 nm): 4 10^-2 ufc/ml; titre bactérien Klebsiella (Klebsiella pneumoniae; ALA 5 mM, T0, CPA 10 g/L proteins): 178 10^-2 ufc/ml; inactivation de K. pneumoniae (Klebsiella pneumoniae; CPA irradiated 1h and 1 h30 at 365 nm with ALA 1-5 mM, no significant difference between concentrations): obtenue; % d'aggrégation (plaquettes [2]; ALA 1 mM, after 1 h30 illumination at 365 nm, collagen): 80%; % d'aggrégation (plaquettes [2]; ALA 1 mM, no illumination, 1 h30 in the dark, collagen): 84%; % d'aggrégation (plaquettes [2]; ALA 2 mM, after 1 h30 illumination at 365 nm, collagen): 69%; % d'aggrégation (plaquettes [2]; ALA 2 mM, no illumination, 1 h30 in the dark, collagen): 84%; % d'aggrégation (plaquettes [2]; ALA 3 mM, after 1 h30 illumination at 365 nm, collagen): 76%; % d'aggrégation (plaquettes [2]; ALA 3 mM, no illumination, 1 h30 in the dark, collagen): 82%; % d'aggrégation (plaquettes [2]; ALA 4 mM, after 1 h30 illumination at 365 nm, collagen): 53%; % d'aggrégation (plaquettes [2]; ALA 4 mM, no illumination, 1 h30 in the dark, collagen): 76%; % d'aggrégation (plaquettes [2]; ALA 5 mM, after 1 h30 illumination at 365 nm, collagen): 26%; % d'aggrégation (plaquettes [2]; ALA 5 mM, no illumination, 1 h30 in the dark, collagen): 78%; fonctionnalité des plaquettes (plaquettes [2]; illumination of CPA with too high a concentration of ALA): semble faire perdre de leur fonctionnalité aux plaquettes; titre bactérien E. Coli (Escherichia coli; ALA 5 mM, Incub 1h at 37°C): 231 10^-2 ufc/ml; titre bactérien E. Coli (Escherichia coli; ALA 5 mM, Incub 1h at 37°C then Irr 1h30 at 365 nm): 1 10^-2 ufc/ml; titre bactérien E. Coli (Escherichia coli; ALA 5 mM, Incub 1h at 37°C then Irr. 1h at 365 nm): 17 10^-2 ufc/ml; titre bactérien E. Coli (Escherichia coli; ALA 5 mM, T0, CPA 10 g/L proteins, series with incubation): 172 10^-2 ufc/ml; titre bactérien E. Coli (Escherichia coli; ALA 5 mM, T0, without incubation): 183 10^-2 ufc/ml; titre bactérien E. Coli (Escherichia coli; ALA 5 mM, without incubation, Irr 1 h30 at 365 nm): 2 10^-2 ufc/ml; titre bactérien E. Coli (Escherichia coli; ALA 5 mM, without incubation, Irr. 1h at 365 nm): 48 10^-2 ufc/ml; inactivation de E.coli (Escherichia coli; ALA (5 mM), even without incubation, irradiation at 365 nm): efficace; inactivation de E.coli (Escherichia coli; CPA irradiated 1 h and 1 h30 at 365 nm with ALA (5 mM), after 1 h incubation at 37°C): obtenue

Q: Which “inactivation de K. pneumoniae” value (Klebsiella pneumoniae; PpIX 10µM, same conditions (incubation 1h, irradiation 1h and 1h30 at 365 nm)) does the source give for protoporphyrine IX [PpIX] here?
A: ne permet pas l'inactivation

Q: What about the “titre bactérien Klebsiella” value (Klebsiella pneumoniae; PpIX 10 µM, Incub 1h at room temperature) of the same compound?
A: 162 10^-2 ufc/ml

Q: And the “titre bactérien Klebsiella” value (Klebsiella pneumoniae; PpIX 10 µM, Incub 1h then Irr 1h30 at 365 nm)?
A: 203 10^-2 ufc/ml

Q: What about the “titre bactérien Klebsiella” value (Klebsiella pneumoniae; PpIX 10 µM, Incub 1h then Irr. 1h at 365 nm) of the same compound?
A: 178 10^-2 ufc/ml

Q: What about the “titre bactérien Klebsiella” value (Klebsiella pneumoniae; PpIX 10 µM, T0, CPA 10 g/L proteins) of the same compound?
A: 181 10^-2 ufc/ml

Q: And the “% d'aggrégation” value (plaquettes [2]; PpIX 1 µM, after 30 minutes illumination at 365 nm)?
A: 53%

Q: And the “% d'aggrégation” value (plaquettes [2]; PpIX 5µM, after 30 minutes illumination at 365 nm)?
A: 16%

Q: And the “% d'aggrégation” value (plaquettes [2]; PpIX 10 µM, after 30 minutes illumination at 365 nm)?
A: 16%

Q: What about the “% d'aggrégation” value (plaquettes [2]; PpIX 20 µM, after 30 minutes illumination at 365 nm) of the same compound?
A: 15%

Q: And the “inactivation de E.coli” value (Escherichia coli; PpIX 10 µM, irradiation at 365 nm)?
A: inefficace

Q: What about the “titre bactérien E. Coli” value (Escherichia coli; PpIX 10 µm, T0, without incubation) of the same compound?
A: 166 10^-2 ufc/ml

Q: What about the “titre bactérien E. Coli” value (Escherichia coli; PpIX 10 µm, without incubation, Irr 1 h30 at 365 nm) of the same compound?
A: 108 10^-2 ufc/ml

Q: And the “titre bactérien E. Coli” value (Escherichia coli; PpIX 10 µm, without incubation, Irr. 1h at 365 nm)?
A: 171 10^-2 ufc/ml
